Reference: US20100092560A1, “REDUCED COENZYME Q10-CONTAINING PARTICULATE COMPOSITION AND METHOD FOR PRODUCING THE SAME” (KANEKA CORPORATION, priority 2007, published 2010)

Experiment: Preservation test: residual ratio of reduced coenzyme Q10 (oxidative stability, HPLC)
Format: physicochemical
Settings: powder preserved for 30 days at 40° C. under shading conditions
Protocol: The purity of reduced coenzyme Q10, the weight ratio (%) of oxidized coenzyme Q10 and reduced coenzyme Q10 and the like were determined by the following HPLC analysis. The HPLC analysis conditions are described below.
column: SYMMETRY C18 (manufactured by Waters) 250 mm (length) 4.6 mm (inner diameter), mobile phase; C2H5OH/CH3OH=4/3(v/v), detection wavelength; 210 nm, flow rate; 1.0 ml/min, retention time of reduced coenzyme Q10; 9.1 min, retention time of oxidized coenzyme Q10; 13.3 min.

In the case of `COc1c(O)c(C)c(C/C=C(\C)CC/C=C(\C)CC/C=C(\C)CC/C=C(\C)CC/C=C(\C)CC/C=C(\C)CC/C=C(\C)CC/C=C(\C)CC/C=C(\C)CCC=C(C)C)c(O)c1OC` [reduced coenzyme Q10 powder, reduced coenzyme Q10], the “residual ratio of reduced coenzyme Q10” value is reported as 28%.
